Measurements reported in US20240025893A1, “PYRIMIDINE-AND NITROGEN-CONTAINING BICYCLIC COMPOUND” (Asahi Kasei Pharma Corporation, priority 2020, published 2024).

Legend:
[1] = test system: LPS-stimulated TNFα production in THP-1 cells; assay: LPS-stimulated TNFα production inhibition test using human acute monocytic leukemia cell strain THP-1; type: cell-based; settings: Homo sapiens, THP-1, 4 h, LPS 2.5 ng/mL, average values
Protocol: By the THP-1 assay, influence of a test compound on the TNFα production induced by LPS stimulation can be evaluated. The THP-1 cells (ATCC, Cat. TIB-202) were inoculated on a 96-well plate at a density of 1×10^5 cells/160 μL/well, a test compound was added in a volume of 20 μL, and the plate was incubated at 37° C. for 1 hour in a 5% CO2 incubator. Then, LPS in a volume of 20 μL (final concentration 2.5 ng/mL, Sigma, Cat. L2630) was added, and the plate was further incubated for 4 hours. After the incubation, the plate was centrifuged, and 100 μL of the supernatant was taken from each well, and used for evaluation of the amount of TNFα using HTRF (Cisbio, Cat. 62TNFPEB). In the measurement of the amount of TNFα, the supernatant was diluted twice with the medium, and then added to wells of a 384-well plate in a volume of 10 μL, then anti-TNFα-cryptate (5 μL), and anti-TNFα-XL665 (5 μL) were added, and the plate was left standing overnight. The fluorescence intensity ratio for the wavelengths of 620 and 665 nm (620 nm/665 nm) was measured with a microplate reader, and the amount of TNFα in the supernatant was calculated by using a calibration curve. The TNFα production suppression ratio observed with no addition of LPS was defined to be 100%, the TNFα production suppression ratio observed with no addition of the test compound was defined to be 0%, and IC50 of the test compound was calculated by using the 4-parameter logistic model of the data analysis software XLfit (ID Business Solutions Ltd.).

human IRAK-4 = human IRAK-4 (Homo sapiens (Human), UniProt Q9NWZ3); assay: Measurement of human IRAK-4 inhibitory activity (TR-FRET, peptide substrate phosphorylation, 10 μM ATP); type: biochemical; settings: 1 nM IRAK-4, 10 μM ATP, 23° C., 30 minutes; average values
Protocol: For the measurement of the activity of the human IRAK-4 (Invitrogen, Cat. PV3362), phosphorylation of the IRAK-4 peptide substrate (biotin-KKKKRFSFKKSFKC) by the enzyme in the presence of 10 μM ATP (Sigma-Aldrich, Cat. A7699) was measured by the TR-FRET method. The enzymatic reaction was performed in a reaction buffer containing 50 mM HEPES (pH 7.2), 1 mM DTT, 0.1 mM Na3VO4, 5 mM MgCl2, 1 mM MnCl2, and 0.1% bovine serum albumin. For the measurement of the IRAK-4 inhibitory activity, a test compound was added to the reaction buffer containing 1 nM IRAK-4, 0.5 μM peptide substrate, and 10 μM ATP, and the mixture was incubated at 23° C. for 30 minutes. Then, a detection solution containing an antibody labeled with europium cryptate (0.3 μg/mL, the antibody was prepared by using the IRAK-4 peptide substrate as the antigen), streptavidin-XL665 (2 μg/mL, CisBio, Cat. 610SAXLB), 50 mM HEPES (pH 7.2), 0.1% BSA, 120 mM KF, and 66.7 mM EDTA (all the concentrations of the reagents are final concentrations) was added to terminate the reaction, and then the mixture was further incubated at 23° C. for 60 minutes. Fluorescence intensity was measured at wavelengths of 665 nm and 620 nm with a microplate reader, and the enzymatic activity was calculated as the ratio of fluorescence intensities at 665 nm and 620 nm (665 nm/620 nm).

Sequence of human IRAK-4 (Q9NWZ3 whole entry): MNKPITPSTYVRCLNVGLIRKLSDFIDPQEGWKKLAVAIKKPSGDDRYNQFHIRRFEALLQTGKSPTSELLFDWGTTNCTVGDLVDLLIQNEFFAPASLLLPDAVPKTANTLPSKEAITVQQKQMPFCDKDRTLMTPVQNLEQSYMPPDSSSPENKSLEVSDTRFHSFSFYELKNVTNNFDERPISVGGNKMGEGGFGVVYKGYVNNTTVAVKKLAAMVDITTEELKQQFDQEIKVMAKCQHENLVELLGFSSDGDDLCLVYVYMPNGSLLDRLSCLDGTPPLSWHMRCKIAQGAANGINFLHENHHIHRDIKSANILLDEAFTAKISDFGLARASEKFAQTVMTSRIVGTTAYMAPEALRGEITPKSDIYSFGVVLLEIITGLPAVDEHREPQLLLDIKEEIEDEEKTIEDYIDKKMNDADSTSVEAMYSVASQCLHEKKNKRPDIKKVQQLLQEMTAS

Row | SMILES | IC50 [1] [µM] | IC50 (human IRAK-4) [µM]
1 | O=C(Nc1nc2ccc(-c3cnc(CO[C@H]4CCC[C@@H]4O)nc3)cc2s1)C1CC(NC2(C(F)(F)F)CC2)C1 (stereo partly shown) [b-02-57] | 0.119 | 0.00262
2 | O=C(Nc1nc2ccc(-c3cnc(CO[C@H]4CCC[C@@H]4O)nc3)cc2s1)C1CC(N[C@@H]2C[C@H]2C(F)(F)F)C1 (stereo partly shown) [b-02-58] | 0.133 | 0.0027
3 | N#CC1(NC2CC(C(=O)Nc3nc4ccc(-c5cnc(CO[C@H]6CCC[C@@H]6O)nc5)cc4s3)C2)CC1 (stereo partly shown) [b-02-59] | 0.105 | 0.00151
4 | O=C(Nc1nc2ccc(-c3cnc(CO[C@H]4CCC[C@@H]4O)nc3)cc2s1)C1CC(NC23CC(C(F)(F)F)(C2)C3)C1 (stereo partly shown) [b-02-60] | 0.158 | 0.00427
5 | O=C(Nc1nc2ccc(-c3cnc(CO[C@H]4CCC[C@@H]4O)nc3)cc2s1)C1CC(N2CCOC(C(F)(F)F)C2)C1 (stereo partly shown) [b-02-61] | 0.109 | 0.00387
6 | O=C(Nc1nc2ccc(-c3cnc(CO[C@H]4CCC[C@@H]4O)nc3)cc2s1)C1CC(N2CC[C@@H](OC(F)F)C2)C1 (stereo partly shown) [b-02-62] | 0.141 | 0.00138
7 | O=C(Nc1nc2ccc(-c3cnc(CO[C@H]4CCC[C@@H]4O)nc3)cc2s1)C1CC(N2CCOC3(CCC3)C2)C1 (stereo partly shown) [b-02-63] | 0.159 | 0.00239
8 | Cn1cc(NC2CC(C(=O)Nc3nc4ccc(-c5cnc(CO[C@H]6CCC[C@@H]6O)nc5)cc4s3)C2)cn1 (stereo partly shown) [b-02-65] | 0.163 | 0.00238
9 | O=C(Nc1nc2ccc(-c3cnc(CO[C@H]4CCC[C@@H]4O)nc3)cc2s1)C1CC(N2CCc3ccccc32)C1 (stereo partly shown) [b-02-66] | 0.227 | 0.005
10 | CC(C)C[C@H]1COCCN1C1CC(C(=O)Nc2nc3ccc(-c4cnc(CO[C@H]5CCC[C@@H]5O)nc4)cc3s2)C1 (stereo partly shown) [b-02-67] | 0.091 | 0.00236
11 | O=C(Nc1nc2ccc(-c3cnc(CO[C@H]4CCC[C@@H]4O)nc3)cc2s1)C1CC(N2CCOCC2C2CC2)C1 (stereo partly shown) [b-02-68] | 0.16 | 0.00218
12 | O=C(Nc1nc2ccc(-c3cnc(CO[C@H]4CCC[C@@H]4O)nc3)cc2s1)C1CC(N2CCO[C@@H]3CCC[C@@H]32)C1 (stereo partly shown) [b-02-69] | 0.08 | 0.00181
13 | CC1(C)CN(C2CC(C(=O)Nc3nc4ccc(-c5cnc(CO[C@H]6CCC[C@@H]6O)nc5)cc4s3)C2)[C@@H]2CCC[C@H]2O1 (stereo partly shown) [b-02-70] | 0.09 | 0.00294
14 | O=C(Nc1nc2ccc(-c3cnc(CO[C@H]4CCC[C@@H]4O)nc3)cc2s1)C1CC(N2CCOCC2CC2CC2)C1 (stereo partly shown) [b-02-71] | 0.105 | 0.00236
15 | CN(CCO)C1CC(C(=O)Nc2nc3ccc(-c4cnc(CO[C@H]5CCC[C@@H]5O)nc4)cc3s2)C1 (stereo partly shown) [b-02-72] | 0.162 | 0.00147
16 | O=C(Nc1nc2ccc(-c3cnc(CO[C@H]4CCC[C@@H]4O)nc3)cc2s1)C1CC(N2CCC3(CC2)COC3)C1 (stereo partly shown) [b-02-74] | 0.189 | 0.00157
17 | O=C(Nc1nc2ccc(-c3cnc(CO[C@H]4CCC[C@@H]4O)nc3)cc2s1)C1CC(NC2C3CC2C3)C1 (stereo partly shown) [b-02-76] | 0.099 | 0.00155
18 | O=C(Nc1nc2ccc(-c3cnc(CO[C@H]4CCC[C@@H]4O)nc3)cc2s1)C1CC(N2CCCCO2)C1 (stereo partly shown) [b-02-77] | 0.187 | 0.0026
19 | O=C(Nc1nc2ccc(-c3cnc(CO[C@H]4CCC[C@@H]4O)nc3)cc2s1)C1CC(NC2(C(F)(F)F)COC2)C1 (stereo partly shown) [b-02-78] | 0.111 | 0.00229
20 | O=C(Nc1nc2ccc(-c3cnc(CO[C@H]4CCC[C@@H]4O)nc3)cc2s1)C1CC(NC2(C(F)(F)F)CCC2)C1 (stereo partly shown) [b-02-79] | 0.138 | 0.00339
21 | O=C(Nc1nc2ccc(-c3cnc(CO[C@H]4CCC[C@@H]4O)nc3)cc2s1)C1CC(NC2(C(F)(F)F)CCCC2)C1 (stereo partly shown) [b-02-80] | 0.176 | 0.00686
22 | O=C(Nc1nc2ccc(-c3cnc(CO[C@H]4CCC[C@@H]4O)nc3)cc2s1)C1CC(N2CCOC3(CCCC3)C2)C1 (stereo partly shown) [b-02-81] | 0.202 | 0.00364
23 | CC1COC2(CCCC2)CN1C1CC(C(=O)Nc2nc3ccc(-c4cnc(CO[C@H]5CCC[C@@H]5O)nc4)cc3s2)C1 (stereo partly shown) [b-02-82] | 0.131 | 0.00402
